The values below come from patent publication US6087376A (priority 1998, dated 2000).

Values joined by “and” are separate entries in the source; they are usually repeats but may differ in a detail not shown here. Equal values may be shown once. “Also recorded” adds a separate entry of the source. Read-outs that look alike come from different tables or passages of the source.

In experiment [1] the test system is rat striatal slices preloaded with [3H]DA. The following applies: cited from earlier work.
Experiment [2] addresses T1, plasma membrane DA transporter (rat striatal synaptosomes) (Rattus norvegicus, UniProt P23977).
T1 construct: from tissue; host or cells: rat striatum, synaptosomes
Kind of experiment: [3H]DA uptake assay, striatal synaptosomal preparation. The experiment is classed as biochemical. The settings on record: nicotine 0.001 nM-100 μM. As to the method:
The homogenate was centrifuged at 2,000×g for 10 min at 4° C. […] The final protein concentration was 400 μg/mL. The assay was performed in duplicate in a total volume of 500 μL. […] The incubation continued for 10 min at 34° C. The reaction was terminated by the addition of 3 mL cold assay buffer (without 1 mM catechol). Samples were rapidly filtered through a Whatman GF/B filter using a Brandel cell harvester (model MP-43 RS, Biochemical Research and Development Laboratories, Inc., Gaithersburg, Md.) and the filter was subsequently washed 3 times with 4 mL of cold assay buffer containing 1 mM catechol. Filters were previously soaked for 2 hrs in the cold assay buffer containing 1 mM catechol. […] Filters were placed into scintillation vials, 10 mL of scintillation cocktail was added and radioactivity was determined by scintillation spectrometry.
(§1) Inhibition of synaptosomal and vesicular [^3 H]DA uptake were analyzed by repeated-measures, one-way ANOVA, and by an iterative nonlinear least-squares curve-fitting program (GraphPAD-PRIZM; GraphPAD, San Diego, Calif.) to obtain IC50 values. Dunnett's post hoc test was used to compare treatment means to a single control mean. Also, Duncan's New Multiple Range Test or Fisher's LSD post hoc analysis were used to compare pairs of treatment means. […]

Experiment [3] concerns the target T2, synaptic vesicular monoamine transporter (VMAT2), rat striatal synaptic vesicles (Rattus norvegicus, UniProt Q01827).
T2 construct: from tissue; host or cells: rat striatum, synaptic vesicles
As to the kind of experiment: [3H]DA uptake assay, striatal synaptic vesicles. The experiment is classed as biochemical. The following applies: nicotine. The protocol: (§2) The homogenate was then centrifuged at 2,000×g for 10 min at 4° C. and the resulting supernatant was centrifuged at 10,000×g for 30 min at 4° C. Synaptosomes (buffy coat) were separated from the underlying mitochondria and cellular debris (reddish pellet) by gentle swirling in 2 mL of 0.32 M sucrose. The enriched synaptosome fraction (2.0 mL) was subjected to osmotic shock by addition of 7 mL distilled H2 0 and was homogenized with 5 up and down strokes of the TEFLON pestle. The osmolarity was restored by the addition of 900 μL of 0.25 M HEPES and 900 μL of 1.0 M neutral potassium-tatrate buffer (pH 7.5) followed by a 20 min centrifugation (20,000×g at 4° C.). The supernatant was then centrifuged for 60 min (55,000×g at 4° C.).
Samples were rapidly filtered through Whatman GF/F filters using the Brandel cell harvester.
as §1

Experiment [4] relates to self-administration by rats. The following applies: rat, in vivo; cited from earlier work.
The test system of experiment [5] is rat striatal slices preloaded with [3H]DA. As to the kind of experiment: [3H]DA release assay: drug-evoked [3H]overflow / fractional release from rat striatal slices preloaded with [3H]DA. The experiment is classed as cell-based. The protocol:
(§3) Rat striata were rapidly dissected on ice and were sliced using a McIlwain tissue chopper. […] Slices were rinsed with 15 mL fresh buffer and then incubated in fresh buffer containing 0.1 μM [^3 H]DA (6-8 slices/3 mL) for an additional 30 min. Subsequently, slices were rinsed with 15 mL fresh buffer and transferred to a glass superfusion chamber. […] After 60 min of superfusion when basal outflow was stabilized, two 5-min samples (5 mL) were collected to determine basal [^3 H]outflow.
The concentration-response for each drug was determined using a repeated-measures design.
(§4) The pH and volume of the solubilized tissue samples were adjusted to those of the superfusate samples.
(§5) Fractional release for each superfusate sample was calculated by dividing the tritium collected in each sample by the total tritium present in the tissue at the time of sample collection. Fractional release was expressed as a percentage of total tritium in the tissue at the time of sample collection. Basal outflow was calculated from the average of the tritium collected in the two 5-min samples just before the addition of drug.
(§6) Inhibition of synaptosomal and vesicular [^3 H]DA uptake were analyzed by repeated-measures, one-way ANOVA, and by an iterative nonlinear least-squares curve-fitting program (GraphPAD-PRIZM; GraphPAD, San Diego, Calif.) to obtain IC50 values. Dunnett's post hoc test was used to compare treatment means to a single control mean. Also, Duncan's New Multiple Range Test or Fisher's LSD post hoc analysis were used to compare pairs of treatment means. Duncan's New Multiple Range Test was used when significant one-way ANOVA's were obtained or when significant main effects were obtained in the two-way ANOVA's. Fisher's LSD post hoc analysis is a more conservative test, which takes into account error which cumulates during multiple comparisons of pairs of means. Fisher's LSD analysis was used when the interaction term was significant in the two-way ANOVAs, specifically in the post hoc analysis of drug×time interactions. Statistical significance was reached when P<0.05 (two-tailed, unless otherwise indicated).

Experiment [6] deals with nicotinic receptors in rat brain. The following applies: in vivo; cited from earlier work.
Experiment [7] relates to conditioned place preference in rats. The settings on record: rat, in vivo; cited from earlier work.
Experiment [8] has as its system nicotinic receptors in mouse brain. The settings on record: in vivo; cited from earlier work.
The target of experiment [9] is central nicotinic receptors. The settings on record: read-out: Kd, binding to nicotinic receptors; cited from earlier work.
For experiment [10], the system named is locomotor activity in rats. The settings on record: rat, in vivo; cited from earlier work.
For experiment [11], the system named is nicotine (10 μM)-evoked [3H]overflow from rat striatal slices. As to the kind of experiment: Mecamylamine antagonism of nicotine-evoked [3H]overflow from rat striatal slices. In kind it is cell-based. The protocol: as §3
To determine the ability of mecamylamine to antagonize nicotine-evoked [^3 H]overflow, a repeated-measure design was utilized also. Individual slices were superfused with a single concentration (0.01-100 μM) of mecamylamine for 60 min, followed by 60 min of superfusion with nicotine (10 μM) in the presence of the various mecamylamine concentrations. One slice in each experiment was superfused in the absence of mecamylamine to determine the effect of nicotine alone. A control slice was superfused with buffer alone.
as §4, §5, §6

The subject of a further experiment is reserpine site on VMAT2. The settings on record: read-out: IC50, inhibition of binding to the reserpine site; cited from earlier work.
Another experiment has as its system rat brain vesicles. The settings on record: cited from earlier work.
Experiment [12] has as its system rat striatal synaptic vesicles. Kind of experiment: [3H]DA release from striatal synaptic vesicles preloaded with [3H]DA. In kind it is biochemical. The protocol: as §2
The final vesicle pellet from a pool of striata from three rats was resuspended in 3 mL of release assay buffer (in mM: 25 HEPES, 100 L-(+)-tartaric acid dipotassium salt, 0.05 EGTA, 0.10 EDTA, 2 Mg^2+ -ATP, and 1.7 ascorbic acid, pH 7.4) and then incubated with [^3 H]DA (0.3 μM) for 8 min at 37° C. […] [^3 H]DA efflux represents the net result of events, i.e., release and reuptake. […] The reaction was terminated by addition of 2.5 mL of ice-cold assay buffer containing 2 mM MgSO4. Samples were rapidly filtered through Whatman GF/F filters using the Brandel cell harvester.
The amount of drug-induced [^3 H]DA release from synaptic vesicles was calculated by subtracting the amount of tritium remaining in the drug-exposed samples from that remaining in the control samples (in the absence of drug). The amount of drug-induced [^3 H]DA release was then divided by the amount of tritium remaining in the control samples and was expressed as a percentage of control.
Concentration-response and kinetic data were analyzed by repeated-measures one-way ANOVA and between-group one-way ANOVA, respectively. When appropriate, Fisher's least significant difference post hoc test was used to determine significant differences between treatment means. IC50 and EC50 values were obtained by an iterative nonlinear least-squarescurve-fitting program (GraphPAD-PRIZM: GraphPAD, San Diego, Calif., U.S.A.) for one-site competition and sigmoidal concentration response, respectively. The t1/2 was obtained by an iterative nonlinear least-squares curve-fitting program for one-phase decay. KD and Bmax values were obtained by Scatchard analysis using an iterative linear least-squares curve-fitting program.

Another experiment relates to monoamine oxidase. The settings on record: cited from earlier work.
Experiment [13] addresses human VMAT2. The settings on record: read-out: Ki, inhibition of monoamine uptake; cited from earlier work.
Experiment [14] deals with [3H]DTBZ binding site, rat striatal homogenates. The settings on record: read-out: Ki, inhibition of [3H]DTBZ binding; cited from earlier work.
Experiment [15] has as its target T3, vesicular monoamine transporter-2 (VMAT2), DTBZ/TBZ site, rat striatal vesicle membranes (Rattus norvegicus, UniProt Q01827).
T3 construct: from tissue; host or cells: rat striatum, synaptic vesicles
As to the kind of experiment: [3H]DTBZ binding to rat striatal vesicles. The settings on record: 2 nM [3H]DTBZ.

For experiment [16], the target named is human VMAT2. The settings on record: read-out: Ki, inhibition of [3H]DTBZ binding; cited from earlier work.
Another experiment concerns VMAT2 knockout mice. The settings on record: mouse, in vivo; cited from earlier work.

As a reminder, the Kd is the equilibrium constant for the complex coming apart. What is called inhibition is the drop in the measured response relative to a control, in per cent. A word on the IC50: it is the point on the concentration scale where inhibition reaches its midpoint. Usually EC50 stands for the concentration giving half of the maximal effect. Usually Ki stands for a measure of affinity in units of concentration, obtained from inhibition or displacement.

T1 sequence (P23977 whole entry): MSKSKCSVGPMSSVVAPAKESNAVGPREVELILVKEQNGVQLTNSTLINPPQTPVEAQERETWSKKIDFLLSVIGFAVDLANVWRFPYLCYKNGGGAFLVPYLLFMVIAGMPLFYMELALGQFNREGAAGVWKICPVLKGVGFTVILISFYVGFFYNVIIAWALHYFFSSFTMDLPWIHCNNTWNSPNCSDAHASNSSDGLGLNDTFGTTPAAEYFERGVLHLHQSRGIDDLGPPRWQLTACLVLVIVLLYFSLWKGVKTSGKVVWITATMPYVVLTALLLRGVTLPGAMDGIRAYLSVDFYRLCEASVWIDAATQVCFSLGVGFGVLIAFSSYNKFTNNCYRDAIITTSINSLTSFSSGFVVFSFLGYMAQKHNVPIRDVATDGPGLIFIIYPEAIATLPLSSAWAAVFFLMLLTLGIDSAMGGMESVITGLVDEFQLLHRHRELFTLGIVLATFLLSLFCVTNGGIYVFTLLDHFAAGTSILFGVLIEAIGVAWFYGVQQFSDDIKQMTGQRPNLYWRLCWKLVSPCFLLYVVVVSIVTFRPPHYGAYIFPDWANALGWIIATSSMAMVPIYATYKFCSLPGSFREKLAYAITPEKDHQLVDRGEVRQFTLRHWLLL
T2 sequence (Q01827 whole entry): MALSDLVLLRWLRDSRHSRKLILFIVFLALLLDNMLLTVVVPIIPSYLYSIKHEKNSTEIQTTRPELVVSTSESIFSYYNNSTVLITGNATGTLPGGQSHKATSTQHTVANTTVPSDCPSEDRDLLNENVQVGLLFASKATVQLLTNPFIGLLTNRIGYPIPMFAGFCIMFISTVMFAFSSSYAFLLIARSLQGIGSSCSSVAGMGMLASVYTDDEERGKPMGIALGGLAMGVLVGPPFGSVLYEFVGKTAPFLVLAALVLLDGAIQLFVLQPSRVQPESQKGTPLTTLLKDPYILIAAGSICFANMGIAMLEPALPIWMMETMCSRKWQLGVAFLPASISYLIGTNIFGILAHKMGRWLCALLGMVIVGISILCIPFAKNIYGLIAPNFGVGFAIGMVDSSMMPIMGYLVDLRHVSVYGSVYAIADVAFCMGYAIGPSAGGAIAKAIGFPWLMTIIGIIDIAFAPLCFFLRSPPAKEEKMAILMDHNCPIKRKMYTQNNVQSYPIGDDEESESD
T3 sequence (Q01827 whole entry): as above

For the compound `CN1CCC[C@H]1c1cccnc1` [Nicotine], the “mechanism of nicotine-evoked DA release” value in [1] is “calcium-dependent, mecamylamine-sensitive and mediated by nicotinic receptors”. The “inhibition of [3H]DA uptake into striatal synaptosomes” value in experiment [2] is “did not inhibit; also recorded: no inhibition of synaptosomal [^3 H]DA uptake was observed; also recorded: no effect was observed”. For the same compound, in experiment [3], the “concentration giving significant inhibition of vesicular [3H]DA uptake” value was 1 mM and ~ 1 mM. The self-administration entry in [4] is on record as “avidly self-administered by rats”. Further, the minimal effective concentration in experiment [5] (Rattus norvegicus, read-out: lowest concentration which evoked a significant increase in [3H]overflow) was 0.05 µM. In addition, the “time to peak fractional release after addition of drug” value in experiment [5] (nicotine) is 10 to 15 min. In experiment [5] (nicotine 100 μM), the peak fractional release is on record as 2 % of total tritium in the slice. Also, the “number of nicotinic receptors after chronic treatment” value in experiment [6] and in experiment [8] was “increase in the number of nicotinic receptors” throughout. Moreover, the conditioned place preference result in experiment [7] is recorded as “produce conditioned place preference”. Moreover, the Kd in experiment [9] is 1 to 7 nM. For the same compound, the locomotor activity entry in experiment [10] is “increase locomotor activity”. Further, the “total [3H]overflow” value in experiment [11] (mecamylamine 0 μM (control)) is 5.60 ± 1.20.
As to `CNC1(C)C2CCC(C2)C1(C)C` (stereo not shown) [Mecamylamine], in experiment [11] (Rattus norvegicus, mecamylamine 0.01 μM, read-out: inhibition of nicotine's effect (fractional release)), the inhibition at 0.01 µM was determined as 36%. Besides, in [11] (Rattus norvegicus, read-out: lowest concentration to produce significant inhibition of nicotine's effect (fractional release, collapsed across time)), the minimal effective concentration turned out to be 0.01 µM. Also, the “Total [3H]overflow evoked by nicotine” value in [11] (mecamylamine 0.01 μM) amounted to 3.57 ± 1.52; in [11] (mecamylamine 0.1 μM, P<0.05 one-tailed) it was 2.40 ± 0.87; in experiment [11] (mecamylamine 1 μM, P<0.05 two-tailed) it was 1.59 ± 0.64; in [11] (mecamylamine 10 μM, P<0.05 two-tailed) it was 1.02 ± 0.43; in [11] (mecamylamine 100 μM, P<0.05 two-tailed), 0.54 ± 0.32.
For the compound `CN[C@@H](C)Cc1ccccc1` [Methamphetamine], the IC50 with reserpine site on VMAT2 is 400 nM.
Take `COc1cc2c(cc1OC)C1CC(=O)C(CC(C)C)CN1CC2` (stereo not shown) [Tetrabenazine]: in the experiment with rat brain vesicles, the “effect on spontaneous efflux of [3H]DA” value is reported as “does not alter spontaneous efflux”.
As for `C[C@H](N)Cc1ccccc1` [d-Amphetamine], the “potency in releasing DA from synaptic vesicles vs lobeline” value in experiment [12] is listed as 10 fold. In addition, the “lowest concentration to evoke [3H]DA release from vesicles” value in experiment [12] (8 min, 37° C.) turned out to be 1 µM. Moreover, in experiment [12] (8 min, 37° C., read-out: EC50, evoked [3H]DA release from synaptic vesicles), the EC50 came out at 2220 ± 130 nM. For the same compound, in the experiment with monoamine oxidase, the “inhibition of monoamine oxidase” value is “inhibits monoamine oxidase”. In addition, the results for the Ki (on human VMAT2 [13]; in experiment [14]; on human VMAT2 [16]) were roughly 2000 nM, greater than 20000 nM and 300000 nM, respectively. Moreover, in experiment [15], the “lowest concentration to significantly inhibit [3H]DTBZ binding” value turned out to be 10 µM.
Take `CC(N)Cc1ccccc1` (stereo not shown) [amphetamine]: the “conditioned place preference in VMAT2 knockout vs wild-type mice” value in the experiment on VMAT2 knockout mice is listed as “diminished amphetamine-induced conditioned place preference”.
